In patent publication US20210371459A1, “DIMERIC PEPTIDE INHIBITORS OF APOPTOSIS PROTEINS” (Hepagene Therapeutics (HK) Limited, priority 2017, published 2021):

Columns and labels:
Details in all cases: FP, probe AbuRPFK-5FAM, 60 min at 25° C.
XIAP-BIR3 = molecular target: T1, XIAP-BIR3 (Homo sapiens, UniProt P98170); experiment: XIAP-BIR3 fluorescence polarization binding assay
T1 construct: purchased Reaction Biology APT-11-374
Source text: (§1) IAPs are one main cause of cancer development and may result from overexpression of anti-apoptotic proteins. This protocol establishes three binding assays for XIAP Bir3 domain, cIAP1 and cIAP2 using FP (Fluorescence polarization) technology. The fluorescence probe used is a synthetic peptide conjugated to 5-carboxyfluorescein (AbuRPFK-5FAM). The fluorescence polarization value (mP) was detected by Envision, which was used to reflect the binding degree of protein and fluorescent marker. Reagents and equipment used in the assay are listed below, followed by the protocol.
(§2) • a) Prepare 100 times of the final cpd concentration in appropriate tube and transfer 5 uL compound (“cpd”) to 45 μL 1× reaction buffer with 10% DMSO. • b) The final reference cpd concentration is 10000, 3333.3, 1111.1, 370.4, 123.4, 41.2, 13.7, 4.57, 1.52, 0.51, 0.17 and 0 nM. So the 100 times of the concentration is 1000, 333.3, 111.1, 37.04, 12.34, 4.12, […], 0.15, 0.05, 0.017 and 0 μM. The final test cpds concentration is 3333.3, 1111.1, 370.4, 123.4, 41.2, 13.7, 4.57, 1.52, 0.51, 0.17, 0.057 and 0 nM. So the 100 times of the concentration is 333.3, 111.1, 37.04, 12.34, 4.12, […], 0.15, 0.05, 0.017, 0.0057 and 0 μM • c) Add 8 μL/well each dose enzyme to 384 well microplate (ProxiPlate-384 F Plus, 6008260) using multichannel pipette, prepared in step 2.1.1.2 • d) Centrifuge at 1000 rpm. • e) Add 2 μL/well cpd to 384 well microplate (ProxiPlate-384 F Plus, 6008260) using multichannel pipette, prepared in step a). • f) Centrifuge at 1000 rpm. RT, 15 min. • g) Start the assay by adding 10 uL/well substrate (prepared in step 2.1.1.3) to the same 384 well microplate using multichannel pipette • h) Centrifuge at 1000 rpm. • i) Cover the assay plate and incubate for 60 min at 25° C. • j) Read on Envision 2104 for mP and plot the IC50s with mP values. • k) Data analysis: IC50s were determined based on a non-linear regression analysis of data collected.

cIAP2-BIR3 = molecular target: T2, cIAP2-BIR3 (Homo sapiens, UniProt Q13489); experiment: cIAP2-BIR3 fluorescence polarization binding assay
T2 construct: cIAP2-BIR3; Reaction Biology; APT-11-372; purchased Reaction Biology APT-11-372
T2 sequence (Q13489 238-349 limits assumed): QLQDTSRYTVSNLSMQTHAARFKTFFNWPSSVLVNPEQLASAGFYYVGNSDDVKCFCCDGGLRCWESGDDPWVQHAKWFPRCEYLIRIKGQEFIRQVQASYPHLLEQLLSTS
Source text: as §1, §2

cIAP1-BIR3 = molecular target: T3, cIAP1-BIR3 (Homo sapiens, UniProt Q13490); experiment: cIAP1-BIR3 fluorescence polarization binding assay
T3 construct: cIAP1-BIR3; Reaction Biology; APT-11-370; purchased Reaction Biology APT-11-370
T3 sequence (Q13490 253-363 limits assumed): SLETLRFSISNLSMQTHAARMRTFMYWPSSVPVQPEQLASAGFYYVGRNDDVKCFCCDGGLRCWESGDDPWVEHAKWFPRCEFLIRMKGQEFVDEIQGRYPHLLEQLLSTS
Source text: as §1, §2

T1 sequence (P98170 241-356 limits assumed): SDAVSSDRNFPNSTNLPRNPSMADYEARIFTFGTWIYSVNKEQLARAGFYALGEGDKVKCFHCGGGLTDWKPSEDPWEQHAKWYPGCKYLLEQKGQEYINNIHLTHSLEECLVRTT

SMILES	IC50 (XIAP-BIR3) [nM]	IC50 (cIAP2-BIR3) [nM]	IC50 (cIAP1-BIR3) [nM]
CN[C@@H](C)C(=O)N[C@H](C(=O)N1C[C@@H](OCCCN2CCN(CCCO[C@H]3C[C@@H](C(=O)N[C@@H]4CCCc5ccccc54)N(C(=O)[C@@H](NC(=O)[C@H](C)NC)C(C)(C)C)C3)CC2)C[C@H]1C(=O)N[C@@H]1CCCc2ccccc21)C(C)(C)C [Compound II-D, (2S,4S)-1-[(2S)-3,3-Dimethyl-2-[(2S)-2-(methylamino)propanamido]butanoyl]-4-[3-[4-(3-[[(3S,5S)-1-[(2S)-3,3-dimethyl-2-[(2S)-2-(methylamino)propanamido]butanoyl]-5-[[(1R)-1,2,3,4-tetrahydronaphthalen-1-yl]carbamoyl]pyrrolidin-3-yl]oxy]propyl)piperazin-1-yl]propoxy]-N-[(1R)-1,2,3,4-tetrahydronaphthalen-1-yl]pyrrolidine-2-carboxamide]	10 to 100	10 to 100	0.1 to 10
CN[C@@H](C)C(=O)N[C@H](C(=O)N1C[C@@H](OCCCN2CCN(CCCO[C@H]3C[C@@H](C(=O)N[C@@H]4CCCc5ccccc54)N(C(=O)[C@@H](NC(=O)[C@H](C)NC)C(C)C)C3)CC2)C[C@H]1C(=O)N[C@@H]1CCCc2ccccc21)C(C)C [Compound II-C, (2S,4S)-1-[(2S)-3-Methyl-2-[(2S)-2-(methylamino)propanamido]butanoyl]-4-{3-[4-(3-{[(3S,5S)-1-[(2S)-3-methyl-2-[(2S)-2-(methylamino)propanamido]butanoyl]-5-{[(1R)-1,2,3,4-tetrahydronaphthalen-1-yl]carbamoyl}pyrrolidin-3-yl]oxy}propyl)piperazin-1-yl]propoxy}-N-[(1R)-1,2,3,4-tetrahydronaphthalen-1-yl]pyrrolidine-2-carboxamide]	0.1 to 10	0.1 to 10	0.1 to 10
CC[C@H](NC(=O)[C@H](C)NC)C(=O)N1C[C@@H](OCCCN2CCN(CCCO[C@H]3C[C@@H](C(=O)N[C@@H]4CCCc5ccccc54)N(C(=O)[C@H](CC)NC(=O)[C@H](C)NC)C3)CC2)C[C@H]1C(=O)N[C@@H]1CCCc2ccccc21 [Compound II-B, (2S,4S)-1-[(2S)-2-[(2S)-2-(Methylamino)propanamido]butanoyl]-4-{3-[4-(3-{[(3S,5S)-1-[(2S)-2-[(2S)-2-(methylamino)propanamido]butanoyl]-5-{[(1R)-1,2,3,4-tetrahydronaphthalen-1-yl]carbamoyl}pyrrolidin-3-yl]oxy}propyl)piperazin-1-yl]propoxy}-N-[(1R)-1,2,3,4-tetrahydronaphthalen-1-yl]pyrrolidine-2-carboxamide]	10 to 100	0.1 to 10	0.1 to 10
CC[C@H](NC(=O)[C@H](C)NC)C(=O)N1CCC[C@H]1C(=O)N[C@@H]1CCCc2c1cccc2N1CCN(c2cccc3c2CCC[C@H]3NC(=O)[C@@H]2CCCN2C(=O)[C@H](CC)NC(=O)[C@H](C)NC)CC1 [Compound I-B, (2S)-1-[(2S)-2-[(2S)-2-(Methylamino)propanamido]butanoyl]-N-[(1R)-5-[4-[(5R)-5-[(2S)-1-[(2S)-2-[(2S)-2-(methylamino)propanamido]butanoyl]pyrrolidine-2-amido]-5,6,7,8-tetrahydronaphthalen-1-yl]piperazin-1-yl]-1,2,3,4-tetrahydronaphthalen-1-yl]pyrrolidine-2-carboxamide]	100 to 1000	10 to 100	0.1 to 10
CC[C@H](NC(=O)[C@H](C)NC)C(=O)N1C[C@@H](OCCC(=O)N2CCN(C(=O)CCO[C@H]3C[C@@H](C(=O)N[C@@H]4CCCc5ccccc54)N(C(=O)[C@H](CC)NC(=O)[C@H](C)NC)C3)CC2)C[C@H]1C(=O)N[C@@H]1CCCc2ccccc21 [Compound IV-B, (2S, 4S)-1-[(2S)-2-[(2S)-2-(Methylamino)propanamido]butanoyl]-4-[3-[4-(3-[[(3S,5S)-1-[(2S)-2-[(2S)-2-(methylamino)propanamido]butanoyl]-5-[[(1R)-1,2,3,4-tetrahydronaphthalen-1-yl]carbamoyl]pyrrolidin-3-yl]oxy]propanoyl)piperazin-1-yl]-3-oxopropoxy]-N-[(1R)-1,2,3,4-tetrahydronaphthalen-1-yl]pyrrolidine-2-carboxamide]	100 to 1000	10 to 100	0.1 to 10

Now from value to compound:

IC50 (XIAP-BIR3) [nM]	IC50 (cIAP2-BIR3) [nM]	IC50 (cIAP1-BIR3) [nM]	SMILES
100 to 1000	0.1 to 10	0.1 to 10	CN[C@@H](C)C(=O)N[C@H](C(=O)N1C[C@@H](OCCC(=O)N2CCN(C(=O)CCO[C@H]3C[C@@H](C(=O)N[C@@H]4CCCc5ccccc54)N(C(=O)[C@@H](NC(=O)[C@H](C)NC)C4CC4)C3)CC2)C[C@H]1C(=O)N[C@@H]1CCCc2ccccc21)C1CC1 [Compound IV-C, (2S,4S)-1-[(2S)-2-Cyclopropyl-2-[(2S)-2-(methylamino)propanamido]acetyl]-4-{3-[4-(3-{[(3S,5S)-1-[(2S)-2-cyclopropyl-2-[(2S)-2-(methylamino)propanamido]acetyl]-5-{[(1R)-1,2,3,4-tetrahydronaphthalen-1-yl]carbamoyl}pyrrolidin-3-yl]oxy}propanoyl)piperazin-1-yl]-3-oxopropoxy}-N-[(1R)-1,2,3,4-tetrahydronaphthalen-1-yl]pyrrolidine-2-carboxamide]
0.1 to 10	0.1 to 10	0.1 to 10	CC[C@H](C)[C@H](NC(=O)[C@H](C)NC)C(=O)N1C[C@@H](OCCCN2CCN(CCCO[C@H]3C[C@@H](C(=O)N[C@@H]4CCCc5ccccc54)N(C(=O)[C@@H](NC(=O)[C@H](C)NC)[C@@H](C)CC)C3)CC2)C[C@H]1C(=O)N[C@@H]1CCCc2ccccc21 [Compound II-G, (2S,4S)-1-[(2S)-3-Methyl-2-[(2S)-2-(methylamino)propanamido]pentanoyl]-4-{3-[4-(3-{[(3S,5S)-1-[(2S)-3-methyl-2-[(2S)-2-(methylamino)propanamido]pentanoyl]-5-{[(1R)-1,2,3,4-tetrahydronaphthalen-1-yl]carbamoyl}pyrrolidin-3-yl]oxy}propyl)piperazin-1-yl]propoxy}-N-[(1R)-1,2,3,4-tetrahydronaphthalen-1-yl]pyrrolidine-2-carboxamide]
100 to 1000	10 to 100	0.1 to 10	CN[C@@H](C)C(=O)N[C@H](C(=O)N1C[C@@H](OCCCN2CCN(CCCO[C@H]3C[C@@H](C(=O)N[C@@H]4CCCc5ccccc54)N(C(=O)[C@@H](NC(=O)[C@H](C)NC)C4CC4)C3)CC2)C[C@H]1C(=O)N[C@@H]1CCCc2ccccc21)C1CC1 [Compound II-F, (2S,4S)-1-[(2S)-2-Cyclopropyl-2-[(2S)-2-(methylamino)propanamido]acetyl]-4-[3-[4-(3-[[(3S,5S)-1-[(2S)-2-cyclopropyl-2-[(2S)-2-(methylamino)propanamido]acetyl]-5-[[(1R)-1,2,3,4-tetrahydronaphthalen-1-yl]carbamoyl]pyrrolidin-3-yl]oxy]propyl)piperazin-1-yl]propoxy]-N-[(1R)-1,2,3,4-tetrahydronaphthalen-1-yl]pyrrolidine-2-carboxamide]
